These results are taken from patent publication EP4752152A1, “STEROID COMPOUND, AND PREPARATION METHOD THEREFOR AND USE THEREOF” (Cholesgen (Shanghai) Co.Ltd., priority 2023, dated 2025).

For one test, the system named is SREBP pathway. The test is described as follows: SREBP luciferase reporter gene system (SRE-luciferase assay). The test is classed as cell-based, human. The conditions noted are these: Homo sapiens, Huh-7, 16 h, Huh-7/SRE-luc cells, sterol-deficient medium, 0.01-10 µM. The procedure, abridged:
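Huh-7 cells stably carrying LDLR promoter-luciferase plus GFP were treated 16 h in sterol-deficient medium (5% lipoprotein-deficient serum, 2 µM lovastatin, 10 µM mevalonic acid) at 0.01–10 µM. Luciferase/GFP ratio measured as pathway activity; inhibition versus DMSO fitted to a four-parameter model for IC50.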
For `COc1nc(F)ccc1[C@H](O)CC[C@@H](C)[C@H]1CC[C@H]2C3=C(F)C[C@H]4[C@@H](O)[C@@H](O)CC[C@]4(C)[C@H]3CC[C@]12C` [Compound 340, (1R,3aR,5aR,6R,7S,9aR,9bR,11aR)-4-fluoro-1-[(2R,5R)-5-(6-fluoro-2-methoxypyridin-3-yl)-5-hydroxypentan-2-yl]-9a,11a-dimethyl-2,3,3a,5,5a,6,7,8,9,9a,9b,10,11,11a-tetradecahydro-1H-cyclopenta[1,2-a]phenanthrene-6,7-diol], the half-maximal inhibitory concentration (IC50) (as a rule, the concentration that gives 50% inhibition) was determined as 0.108 µM.
Still for that read-out and setting: then `COc1cccc(C(O)CCC[C@@H](C)[C@H]2CC[C@H]3C4=C(F)C[C@H]5[C@@H](O)[C@@H](O)CC[C@]5(C)[C@H]4CC[C@]23C)c1` (stereo partly drawn) [Compound 40, (1R,3aR,5aR,6R,7S,9aR,9bR,11aR)-4-fluoro-1-[(2R)-6-hydroxy-6-(3-methoxyphenyl)hexan-2-yl]-9a,11a-dimethyl-2,3,3a,5,5a,6,7,8,9,9a,9b,10,11,11a-tetradecahydro-1H-cyclopenta[1,2-a]phenanthrene-6,7-diol], with 0.25 µM; and `C[C@H](CCCC(O)c1ccc(F)nc1F)[C@H]1CC[C@H]2C3=C(F)C[C@H]4[C@@H](O)[C@@H](O)CC[C@]4(C)[C@H]3CC[C@]12C` (stereo partly drawn) [Compound 147, (1R,3aR,5aR,6R,7S,9aR,9bR,11aR)-1-[(2R)-6-(2,6-difluoropyridin-3-yl)-6-hydroxyhexan-2-yl]-4-fluoro-9a,11a-dimethyl-2,3,3a,5,5a,6,7,8,9,9a,9b,10,11,11a-tetradecahydro-1H-cyclopenta[1,2-a]phenanthrene-6,7-diol], with 0.19 µM; and `C[C@H](CCCC(O)C1CC2CCC1C2)[C@H]1CC[C@H]2[C@H]3[C@H](CC[C@]12C)[C@@]1(C)CC[C@H](O)[C@H](O)[C@@H]1CC3(F)F` (stereo partly drawn) [Compound 213, (1R,3aS,3bS,5aR,6R,7 S,9aR,9bS,11aR)-1-[(2R)-6-(Bicyclo[2.2.1]heptan-2-yl)-6-hydroxyhexan-2-yl]-4,4-difluoro-9a,11a-dimethylhexadecahyd ro-1H-cyclopenta[1,2-a]phenanthrene-6,7-diol], with 0.569 µM.
`COc1cc(F)c([C@@H](O)CCC[C@@H](C)[C@H]2CC[C@H]3[C@H]4[C@H](CC[C@]23C)[C@@]2(C)CC[C@H](O)[C@H](O)[C@@H]2CC4(F)F)c(F)n1` (single isomer, unassigned) [Compound 238]: the 50% inhibitory concentration (IC50) came to 0.289 µM.
The same measure, in the same setting: then `C[C@H](CCCC(O)c1ccc(F)nc1OCC1COC1)[C@H]1CC[C@H]2[C@H]3[C@H](CC[C@]12C)[C@@]1(C)CC[C@H](O)[C@H](O)[C@@H]1CC3(F)F` (stereo partly drawn) [Compound 383, (1R,3aS,3bS,5aR,6R,7S,9aR,9bS,11aR)-4,4-difluoro-1-[(2R)-6-{6-fluoro-2-[(oxetan-3-ylmethyl)oxy]pyridin-3-yl}-6-hydroxyhexan-2-yl]-9a,11a-dimethylhexadecahydro-1H-cyclopenta[1,2-a]phenanthrene-6,7-diol], with 0.041 µM; and `COc1cc(F)c(C(O)CCCC(C)C2CCC3C4C(CCC23C)C2(C)CCC(O)C(O)C2CC4(F)F)c(F)c1` (single isomer, unassigned) [Compound 204, (1R,3aS,3bS,5aR,6R,7S,9aR,9bS,11aR)-1-[(2R,6S)-6-(2,6-difluoro-4-methoxyphenyl)-6-hydroxyhexan-2-yl]-4,4-difluoro-9a,11a-dimethylhexadecahydro-1H-cyclopenta[1,2-a]phenanthrene-6,7-diol or (1R,3aS,3bS,5aR,6R,7S,9aR,9bS,11aR)-1-[(2R,6R)-6-(2,6-difluoro-4-methoxyphenyl)-6-hydroxyhexan-2-yl]-4,4-difluoro-9a,11a-dimethylhexadecahydro-1H-cyclopenta[1,2-a]phenanthrene-6,7-diol], with 0.145 µM.
In the case of `COc1cccc(OC)c1C(O)CCC[C@@H](C)[C@H]1CC[C@H]2C3=C(F)C[C@H]4[C@@H](O)[C@@H](O)CC[C@]4(C)[C@H]3CC[C@]12C` (stereo partly drawn) [Compound 115, (1R,3aR,5aR,6R,7S,9aR,9bR,11aR)-1-[(2R)-6-(2,6-dimethoxyphenyl)-6-hydroxyhexan-2-yl]-4-fluoro-9a,11a-dimethyl-2,3,3a,5,5a,6,7,8,9,9a,9b,10,11,11a-tetradecahydro-1H-cyclopenta[1,2-a]phenanthrene-6,7-diol], the IC50 is 0.613 µM.
In the case of `C[C@H](CCCC(O)c1cccnc1F)[C@H]1CC[C@H]2[C@H]3[C@H](CC[C@]12C)[C@@]1(C)CC[C@H](O)[C@H](O)[C@@H]1CC3(F)F` (stereo partly drawn) [Compound 80, (1R,3aS,3bS,5aR,6R,7S,9aR,9bS,11aR)-4,4-difluoro-1-[(2R)-6-(2-fluoropyridin-3-yl)-6-hydroxyhexan-2-yl]-9a,11a-dimethylhexadecahydro-1H-cyclopenta[1,2-a]phenanthrene-6,7-diol], the IC50 was 0.514 µM.
On the same count and under the same terms, then `C[C@H](CCCC(O)c1cccc2c1nnn2C)[C@H]1CC[C@H]2[C@H]3[C@H](CC[C@]12C)[C@@]1(C)CC[C@H](O)[C@H](O)[C@@H]1CC3(F)F` (single isomer, unassigned) [Compound 290, (1R,3aS,3bS,5aR,6R,7S,9aR,9bS,11aR)-4,4-difluoro-1-[(2R,6S)-6-hydroxy-6-(1-methylbenzo[d][1,2,3]triazol-4-yl)hexan-2-yl]-9a,11a-dimethylhexadecahydro-1H-cyclopenta[1,2-a]phenanthrene-6,7-diol or (1R,3aS,3bS,5aR,6R,7S,9aR,9bS,11aR)-4,4-difluoro-1-[(2R,6R)-6-hydroxy-6-(1-methylbenzo[d][1,2,3]triazol-4-yl)hexan-2-yl]-9a,11a-dimethylhexadecahydro-1H-cyclopenta[1,2-a]phenanthrene-6,7-diol], with 0.137 µM; and `C[C@H](CCCC(O)c1ccc(OC(F)(F)F)cc1F)[C@H]1CC[C@H]2[C@H]3[C@H](CC[C@]12C)[C@@]1(C)CC[C@H](O)[C@H](O)[C@@H]1CC3(F)F` (stereo partly drawn) [Compound 62, (1R,3aS,3bS,5aR,6R,7S,9aR,9bS,11aR)-4,4-difluoro-1-[(2R)-6-{2-fluoro-4-[(trifluoromethyl)oxy]phenyl}-6-hydroxyhexan-2-yl]-9a,11a-dimethylhexadecahydro-1H-cyclopenta[1,2-a]phenanthrene-6,7-diol], with 0.728 µM.

Still in this test, the particulars now being: Huh-7/SRE-luc cells, sterol-deficient medium, 16 hours, 0.01-10 µM.
`C[C@H](CCCC(O)c1cccc2cn[nH]c12)[C@H]1CC[C@H]2[C@H]3[C@H](CC[C@]12C)[C@@]1(C)CC[C@H](O)[C@H](O)[C@@H]1CC3(F)F` (single isomer, unassigned) [Compound 269, (1R,3aS,3bS,5aR,6R,7S,9aR,9bS,11aR)-4,4-difluoro-1-[(2R,6R)-6-hydroxy-6-(1H-indazol-7-yl)hexan-2-yl]-9a,11a-dimethylhexadecahydro-1H-cyclopenta[1,2-a]phenanthrene-6,7-diol or (1R,3aS,3bS,5aR,6R,7S,9aR,9bS,11aR)-4,4-difluoro-1-[(2R,6S)-6-hydroxy-6-(1H-indazol-7-yl)hexan-2-yl]-9a,11a-dimethylhexadecahydro-1H-cyclopenta[1,2-a]phenanthrene-6,7-diol]: the half-inhibitory concentration (IC50) is 0.8 µM.
